This note sets out measurements from the NIST ThermoML archive (doi:10.1016/j.fluid.2007.07.020).

Molecules are shown by their SMILES. Where “and” joins values, the source holds several entries; their conditions need not be identical. Equal values may be shown once. Numbers after ± are expanded uncertainties.

The conditions of data set [1]: Crystal; DTA.
Data set [2] can be described thus: Molar enthalpy of transition or fusion. The settings on record: Crystal; DSC.

For `O=C([O-])Cc1ccccc1Nc1c(Cl)cccc1Cl.[Na+]` [sodium diclofenac], the Normal melting temperature in data set [1] came to 287 ± 3 °C. Also, the “Molar enthalpy of transition or fusion” value in data set [2] was 7.6 kcal/mol and 9.5 kcal/mol.
